According to BindingDB's records for doi:10.1016/0960-894X(95)00537-3 (1995):

What follows are compounds tested against Gastrin/cholecystokinin type B receptor (Cavia porcellus) (assay: Inhibitory activity towards binding of [125I]Bolton-Hunter-CCK-8 to CCKB receptor in guinea pig cortical tissue).
`CCCC[C@@H](NC(=O)Nc1cccc(C)c1)C(=O)N1CCC(C(=O)c2ccccc2)CC1` [1-[(R)-1-(4-Benzoyl-piperidine-1-carbonyl)-pentyl]-3-m-tolyl-urea] was tested, and the IC50 was 4800 nM. `Cc1cccc(NC(=O)N[C@H](CCC(=O)OCc2ccccc2)C(=O)N2CCN(C(=O)c3ccccc3)CC2)c1` showed an IC50 of over 10000 nM. With `Cc1cccc(NC(=O)N[C@H](CS(=O)(=O)Cc2ccccc2)C(=O)N2CCC(C(=O)c3ccccc3)CC2)c1` [1-[(S)-2-(4-Benzoyl-piperidin-1-yl)-2-oxo-1-phenylmethanesulfonylmethyl-ethyl]-3-m-tolyl-urea] the IC50 was 810 nM. For `CC(C)C[C@H](NC(=O)[C@H](Cc1c[nH]c2ccccc12)NC(=O)OC(C)(C)C)C(=O)N1CCC(C(=O)c2ccccc2)CC1` [[(S)-1-[(S)-1-(4-Benzoyl-piperidine-1-carbonyl)-3-methyl-butylcarbamoyl]-2-(1H-indol-3-yl)-ethyl]-carbamic acid tert-butyl ester], the IC50 was 912 nM. `CC(C)(C)OC(=O)N[C@@H](Cc1c[nH]c2ccccc12)C(=O)N1CCC(C(=O)c2ccccc2)CC1` [[(S)-2-(4-Benzoyl-piperidin-1-yl)-1-(1H-indol-3-ylmethyl)-2-oxo-ethyl]-carbamic acid tert-butyl ester] gave an IC50 of over 10000 nM. `Cc1cccc(NC(=O)N[C@H](CCC(=O)OCc2ccccc2)C(=O)N2CCC(C(=O)Nc3ccccc3)CC2)c1` [5-(R)-Oxo-5-(4-phenylcarbamoyl-piperidin-1-yl)-4-(3-m-tolyl-ureido)-pentanoic acid benzyl ester] was tested, and the IC50 was 2000 nM. In the case of `CC(=O)C1CCN(C(=O)[C@@H](COCc2ccccc2)NC(=O)Nc2cccc(C)c2)CC1` [1-[(R)-2-(4-Acetyl-piperidin-1-yl)-1-benzyloxymethyl-2-oxo-ethyl]-3-m-tolyl-urea], the IC50 is reported as over 6900 nM. With `Cc1cccc(NC(=O)N[C@H](COCc2ccccc2)C(=O)N2CCC(Cc3ccccc3)CC2)c1` [1-[(R)-1-Benzyloxymethyl-2-(4-benzyl-piperidin-1-yl)-2-oxo-ethyl]-3-m-tolyl-urea] the IC50 was over 5900 nM. `Cc1cccc(NC(=O)N[C@H](CCC(=O)OCc2ccccc2)C(=O)N2CCC(NC(=O)c3ccccc3)CC2)c1` [5-(4-Benzoylamino-piperidin-1-yl)-5-(R)-oxo-4-(3-m-tolyl-ureido)-pentanoic acid benzyl ester] showed an IC50 of over 10000 nM. `Cc1cccc(NC(=O)N[C@H](COC(=O)N2CCCC2)C(=O)N2CCC(C(=O)Nc3ccccc3)CC2)c1` [Pyrrolidine-1-carboxylic acid (R)-3-oxo-3-(4-phenylcarbamoyl-piperidin-1-yl)-2-(3-m-tolyl-ureido)-propyl ester] showed an IC50 of 34 nM. In the case of `Cc1cccc(NC(=O)N[C@H](COC(=O)N2CCOCC2)C(=O)N2CCC(C(=O)c3ccccc3)CC2)c1` [Morpholine-4-carboxylic acid (R)-3-(4-benzoyl-piperidin-1-yl)-3-oxo-2-(3-m-tolyl-ureido)-propyl ester], the IC50 is reported as 180 nM. In the case of `Cc1cccc(NC(=O)N[C@H](COCc2ccccc2)C(=O)N2CCC(C(=O)c3ccc(F)cc3)CC2)c1` [1-{1-((R)-Benzyloxymethyl)-2-[4-(4-fluoro-benzoyl)-piperidin-1-yl]-2-oxo-ethyl}-3-m-tolyl-urea], the IC50 is reported as 230 nM. `Cc1cccc(NC(=O)N[C@H](CCCc2ccccc2)C(=O)N2CCC(C(=O)c3ccccc3)CC2)c1` [1-{1-[(R)-(4-Benzoyl-piperidin-1-yl)-oxo-methyl]-4-phenyl-butyl}-3-m-tolyl-urea] gave an IC50 of 1100 nM. For `Cc1cccc(NC(=O)N[C@H](COC(=O)N(C)C)C(=O)N2CCC(C(=O)c3ccccc3)CC2)c1` [Dimethyl-carbamic acid (R)-3-(4-benzoyl-piperidin-1-yl)-3-oxo-2-(3-m-tolyl-ureido)-propyl ester], the IC50 was 1500 nM. In the case of `Cc1cccc(NC(=O)N[C@H](COC(=O)N2CCCC2)C(=O)N2CCC(C(=O)c3ccccc3)CC2)c1` [Pyrrolidine-1-carboxylic acid (R)-3-(4-benzoyl-piperidin-1-yl)-3-oxo-2-(3-m-tolyl-ureido)-propyl ester], the IC50 is reported as 100 nM. `Cc1cccc(NC(=O)N[C@H](COC(=O)Nc2ccccc2)C(=O)N2CCC(C(=O)c3ccccc3)CC2)c1` [Phenyl-carbamic acid (R)-3-(4-benzoyl-piperidin-1-yl)-3-oxo-2-(3-m-tolyl-ureido)-propyl ester] was tested, and the IC50 was 120 nM. For `CC(Cc1c[nH]c2ccccc12)(NC(=O)OC1[C@H]2C[C@@H]3C[C@@H](C[C@H]1C3)C2)C(=O)N1CCC(C(=O)c2ccccc2)CC1` (some centres not stated) [[2-(4-Benzoyl-piperidin-1-yl)-1-(1H-indol-3-ylmethyl)-1-methyl-2-oxo-ethyl]-carbamic acid adamantan-2-yl ester], the IC50 was 3400 nM. In the case of `Cc1cccc(NC(=O)N[C@@H](C(=O)N2CCC(C(=O)c3ccccc3)CC2)[C@@H](C)OCc2ccccc2)c1` [1-{(R)-1-[(R)-(4-Benzoyl-piperidin-1-yl)-oxo-methyl]-2-benzyloxy-propyl}-3-m-tolyl-urea], the IC50 is reported as 440 nM. `CC(C)C[C@H](NC(=O)[C@H](Cc1c[nH]c2ccccc12)NC(=O)OC(C)(C)C)C(=O)N1CCC(Cc2ccccc2)CC1` [[(S)-1-[(S)-1-(4-Benzyl-piperidine-1-carbonyl)-3-methyl-butylcarbamoyl]-2-(1H-indol-3-yl)-ethyl]-carbamic acid tert-butyl ester] showed an IC50 of over 10000 nM. Compound `Cc1cccc(NC(=O)N[C@H](CCc2ccccc2)C(=O)N2CCC(C(=O)c3ccccc3)CC2)c1` [1-[(R)-1-(4-Benzoyl-piperidine-1-carbonyl)-3-phenyl-propyl]-3-m-tolyl-urea] has an IC50 of 3900 nM. Work on `Cc1cccc(NC(=O)N[C@H](COCc2ccccc2)C(=O)N2CCC(C(=O)Nc3ccccc3)CC2)c1` [1-[(R)-3-Benzyloxy-2-(3-m-tolyl-ureido)-propionyl]-piperidine-4-carboxylic acid phenylamide] yielded an IC50 of 160 nM. In the case of `Cc1cccc(NC(=O)N[C@H](COCc2ccccc2)C(=O)N2CCC(C(=O)c3ccccc3)CC2)c1` [1-[(R)-2-(4-Benzoyl-piperidin-1-yl)-1-benzyloxymethyl-2-oxo-ethyl]-3-m-tolyl-urea], the IC50 is reported as 300 nM.
